Results on 18 molecules are retold here after paper PMC6421539, “Discovery of Soft-Drug Topical Tool Modulators of Sphingosine-1-phosphate Receptor 1 (S1PR1)” (ACS Medicinal Chemistry Letters, 2019).

Data set [1] in a line: Chemical stability in DMSO solution. The data set is classed as physicochemical. Conditions: for stability (% decrease): Table 3, % loss in purity when stored in DMSO solution for 28 days; for stability (% decrease) / stability (% decrease in purity): n = 1; for isomerization / hydrolysis / chemical instability in DMSO solution (in words): 28 days; for stability (% decrease in purity): Table 2, stored in DMSO solution for 28 days. An excerpt:
Although several compounds shown in Table 2 satisfy the rapid clearance requirements of a soft drug and retain primary activity, none were suitable for progression into in vivo studies due to chemical stability liabilities. […] The instability in solution represented a major development hurdle as topical drugs are usually stored in solution or suspensions (cream, ointment, paste, lotion, or gels), rather than in solid form, as is the case for oral drugs. We turned our attention to identifying the impurity and preventing its formation.
Decomposition studies used ^1H NMR to monitor the increase in the acetic acid methyl group peak over 28 days (see Supporting Information). […] However, the chemical stability was poor when heteroatoms were alpha to the carbonyl of the acetate group 10d,e, and these compound degraded on standing within 24 h, preventing full characterization.

On the set-up of data set [2]: method as in PMID 20089952. Conditions: 0.5 mg/day; cited from earlier work.
Data set [3] in a line: Topical pharmacokinetic experiment in mice. It is filed as in vivo. The following applies: for Mean concentration in blood: female Balb/c mice, topical 10a 1% w/v, n=3, LLoQ = 1 ng/mL, scaled LLoQ 10 ng/mL; for concentration at 2 h / concentration at 8 h: female, Balb/c, mouse, 22.5 µL of 1% w/v 10a; for concentration at 2 h / concentration at 8 h / concentration in blood: mice, topical 22.5 μL of 1% 10a in propylene glycol/ethanol 7/3.

A short description of data set [4]: Glutathione trapping experiment in human liver microsomes. It is filed as in vitro ADME. The following applies: 10 µM, 90 minutes. As to the method: Concentration (ng/mL) Scaled concentration (ng/mL) Mean concentration […]
Mouse 1 Mouse 2 Mouse 3 Mouse 1 Mouse 2 Mouse 3
2h-post application < LLoQ < LLoQ < LLoQ < LLoQ < LLoQ < LLoQ < LLoQ […]
Mouse 4 Mouse 5 Mouse 6 Mouse 4 Mouse 5 Mouse 6
8h-post application < LLoQ < LLoQ < LLoQ < LLoQ < LLoQ < LLoQ < LLoQ […]
Scaled LLoQ = dilution factor * LLoQ = 10*1 = 10 ng/mL
Skin concentrations for 10a
Test compound (10 µM) was incubated with 0.5 mg/mL human liver microsomes (Mixed Gender, Life Technologies) in 50 mM potassium phosphate buffer, pH 7.4 in the presence of either NADPH (8mg/mL) alone, glutathione alone or NADPH plus glutathione. Reactions are initiated by addition of 5 µL of 1 mM test compound (final concentration 10 µM, 1% solvent). Immediately, an aliquot (100 µL) of the incubation mixture was removed and mixed with acetonitrile (200 µL) to stop the reaction. A further 100 µL aliquot is removed at 90 minutes. After addition of 100 µL of water, the samples were centrifuged to sediment precipitated protein and the plates then sealed prior to analysis using a Xevo QTof Quadrupole Time-of-Flight Mass Spectrometer (Waters corporation, USA). Detection of metabolites is performed by analysis with MetabolynxXS and by manual data
(1 picture or pasted object on this page, not shown here)
In general terms: Microsomes from liver hold many membrane-bound enzymes, among them those of drug oxidation.

The nature of data set [5]: Metabolite identification in human skin S9 fraction. The following applies: incubation with human skin S9 fraction; n = 1. The data set is classed as in vitro ADME. The source says:
(§1) Based on the stability of (Z,Z)-9k in DMSO over 28 days (Table 2), it is likely this hydrolysis is enzymatically driven. We then performed metabolite identification studies using (Z,Z)-9k in human hepatocytes to confirm the routes of clearance of our S1PR1 modulators.

Data set [6] can be described thus: Human liver hepatocyte stability, intrinsic clearance. The data set is classed as in vitro ADME. As to the method:
the exponential decay and consequently the rate constant (k) from the ratio of peak area of test compound to internal standard at each timepoint. The rate of intrinsic clearance (CLi) of each test compound was then calculated using the following calculation:
CLi (mL/min/g liver) = k x V x Microsomal protein yield
Where V (mL/mg protein) is the incubation volume/mg protein added and microsomal protein yield is taken as 52.5 mg protein per g liver. Verapamil (0.5 μM) was used as a positive control to confirm acceptable assay performance. Experiments were performed using a single timecourse experiment.
All values reported correspond to n of 1.
Human Liver Hepatocyte (HLH) stability experiments
Cryopreserved vials of human cryopreserved hepatocytes, supplied by Life Technologies, were thawed according to manufacturer’s instructions and cells resuspended in Williams Medium E (WME) containing cell maintenance supplement pack (CM4000, Life Technologies). Hepatocytes were incubated in suspension (0.5 million cells/mL) in 48 well non-collagen coated cell culture plates for 10 minutes at 37 °C, 5% CO 2. […] The response (area ratio of test compound to internal standard) was plotted against time using an exponential decay model and rate of disappearance calculated. […]
The half life (T½) of each test compound was determined using the following equation: […]

Data set [7] is described as follows: Metabolite identification in human hepatocytes. It is filed as in vitro ADME. The following applies: n = 1.
Description: as §1

Data set [8] can be described thus: NMR study of isomerisation after incubation in DMSO-d6 for 6 months. Conditions: 1H NMR integration. The data set is classed as physicochemical. An excerpt: The NOESY spectrum of the mixture indicated no changes in the arrangement of the imine (no correlation was observed between H^11–H^19 or H^11′–H^19′).
A short description of data set [9]: CHI logD by reverse-phase HPLC. It is filed as physicochemical. Conditions: compared to 4a.

“Also recorded” adds a separate entry of the source. Where two headings read alike, the source gives them in different places.

For `CCC/N=C1\S/C(=C\c2ccc(OC(C)=O)c(C(F)(F)F)c2)C(=O)N1c1ccccc1C` [Compound 10c], the “stability (% decrease)” value in [1] is 1.4%.

Turning to `CCC/N=C1\S/C(=C\c2ccc(OC(=O)COC)c(C)c2)C(=O)N1c1ccccc1C` [Compound 10d], in data set [1] (heteroatom alpha to the carbonyl of the acetate group), the “time within which compound degraded on standing” value was not above 24 h.

As to `CCCCCCCCc1ccc(CCC(N)(CO)CO)cc1` [fingolimod], in [2], the “steady state systemic concentration Cmax” value is 3.1 ng/mL.

With `CCC/N=C1\S/C(=C\c2ccc(OC(=O)CCO)c(C)c2)C(=O)N1c1ccccc1C` [Compound 10f], in data set [1], the “isomerization / hydrolysis / chemical instability in DMSO solution (in words)” value is given as “did not isomerize; also recorded: instability was not an issue” and the “stability (% decrease)” value is recorded as 0%.

As to `CCC/N=C1\S/C(=C\c2ccc(OC[C@H](O)CO)c(Cl)c2)C(=O)N1c1ccccc1C` [ponesimod, reference compound], the “stability (% decrease)” value in data set [1] was determined as 0%.

As for `CCC/N=C1\S/C(=C\c2ccc(O)cn2)C(=O)N1c1ccccc1C` [Compound 9i], the “stability (% decrease in purity)” value in data set [1] worked out at 4%.

In the case of `CCC/N=C1\S/C(=C\c2ccc(O)c(Br)c2)C(=O)N1c1ccccc1C` [Compound 9f], the “stability (% decrease in purity)” value in [1] was found to be 16%.

With `CCC/N=C1\S/C(=C\c2ccc(O)c(C(F)(F)F)c2)C(=O)N1c1ccccc1C` [Compound 9g], the “stability (% decrease in purity)” value in [1] was 10%.

Regarding `CCC/N=C1\S/C(=C\c2ccc(OC(C)=O)c(C)c2)C(=O)N1c1ccccc1C` [Compound 10a], the “isomerization / hydrolysis / chemical instability in DMSO solution (in words)” value in data set [1] is on record as “did not isomerize; also recorded: no hydrolysis or isomerization”. Besides, the “stability (% decrease)” value in data set [1] came out at 0%. In addition, the “Mean concentration in blood” value in [3] (2h-post application) and in data set [3] (8h-post application) was “< LLoQ” throughout. For the same molecule, in data set [3] (whole blood, 2 h, read-out: concentrations in blood), the concentration at 2 h is 8.8 µM. In data set [3] (whole blood, 8 h, read-out: concentrations in blood), the concentration at 8 h was 4.9 µM. For the same molecule, the concentration in blood entry in data set [3] (2 h) and in data set [3] (8 h) was “LLoQ” in each case. For the same molecule, the “glutathione adducts or derivatives” value in data set [4] was “no evidence of glutathione adducts or derivatives was observed”. The metabolites identified result in data set [5] is “expected phenol (Z,Z)-9k was obtained after hydrolysis of the ester group: no other metabolites were observed”.

For the molecule `CCC/N=C1\S/C(=C\c2ccc(O)c(Cl)c2)C(=O)N1c1ccccc1C` [Compound 4a], the “stability (% decrease in purity)” value in data set [1] came to 6%.

As for `CCC/N=C1\S/C(=C\c2ccc(OC(C)=O)c(Br)c2)C(=O)N1c1ccccc1C` [Compound 10b], the “stability (% decrease)” value in data set [1] is on record as 6.3%.

Take `CCC/N=C1\S/C(=C\c2ccc(O)c(C)c2)C(=O)N1c1ccccc1C` [Compound 9k]: in [6] (corresponds to intrinsic clearance 31 mL/min/g, if good in vitro to in vivo correlation), the “hepatic clearance as % liver blood flow” value stood at 97 % liver blood flow. In data set [1], the “stability (% decrease in purity)” value turned out to be 3%. The “Mean concentration in blood” value in data set [3] (2h-post application) and in [3] (8h-post application) was “< LLoQ” throughout. For the same molecule, the concentration at 2 h in data set [3] (skin, 2 h, read-out: concentration in the skin) amounted to 134 µM. The concentration at 8 h in data set [3] (skin, 8 h, read-out: concentration in the skin) was 101 µM. Further, the concentration in blood result in data set [3] (2 h) and in data set [3] (8 h) was “LLoQ” throughout. The metabolites identified entry in data set [7] is “glucuronide conjugation product, hydroxylation products, and hydroxylation with sulfation metabolites”.

As to `CCC/N=C1\S/C(=C\c2ccc(O)cc2)C(=O)N1c1ccccc1C` [Compound 9j], in data set [1], the “isomerization / hydrolysis / chemical instability in DMSO solution (in words)” value is on record as “stable over a 28-day period” and the “stability (% decrease in purity)” value was found to be 0%.

For `CCC/N=C1\S/C(=C\c2ccc(O)c(C#N)c2)C(=O)N1c1ccccc1C` [Compound 9h], the “H Heps Cl (intrinsic clearance in human liver hepatocytes)” value in data set [6] (0.5 μM test compound, n = 1) is listed as less than 0.5 mL/min/g. In [1], the “stability (% decrease in purity)” value was determined as 20%. In data set [8], the “impurity (E isomer) share of the mixture” value was determined as 32%.

For the molecule `CCC/N=C1\S/C(=C\c2ccc(O)c(Cl)c2)C(=O)N1c1ccccc1O` [Compound 4h], in data set [9], the “reduction in CHIlogD” value amounted to 1.1 log units.

As to `CCC/N=C1\S/C(=C\c2ccc(OC(=O)CCOC)c(C)c2)C(=O)N1c1ccccc1C` [Compound 10g], the “isomerization / hydrolysis / chemical instability in DMSO solution (in words)” value in data set [1] is listed as “instability was not an issue”.

For `CCC/N=C1\S/C(=C\c2ccc(O)c(Cl)c2)C(=O)N1C1CCN(C)C(=O)C1` (stereo not drawn) [Compound 4f], the “reduction in CHIlogD” value in [9] was 3 log units.

In the case of `CCC/N=C1\S/C(=C\c2ccc(O)c(C(C)C)c2)C(=O)N1c1ccccc1C` [Compound 9l], the “stability (% decrease in purity)” value in data set [1] is recorded as 3%.
